From patent US20190256827A1, “EPIGENOME EDITING SYSTEMS AND METHODS” (STC.UNM, priority 2017, published 2019)

What was measured:
[1] = test system: HBA locus in HEK293T cells; assay: ChIP-qPCR of FLAG-ABI-P300 and H3K27Ac at the HBA locus; assay type: cell-based, human; conditions: HBA sgRNAs; ABA treatment for 48 hours
Protocol: (§1) To determine if the new method can be used to modify H3K27Ac at other gene loci, sgRNAs were designed that target the promoter region of other genes with low expression levels in HEK293T cells, including GRM2, HBA and MYOD1 (Table 1).
Human embryonic kidney cell HEK293T (American Type Culture Collection, Manassas, Va.) was cultured in Dulbecco's modified Eagle's medium (DMEM) (Gibco) with 10% FBS (Atlanta Biologicals), 1× GlutaMax (Gibco, Thermo Fisher Scientific, Inc., Waltham, Mass.), and 1× penicillin/streptomycin (Pen/Strep; Gibco, Thermo Fisher Scientific, Inc., Waltham, Mass.). Cells (100,000/ml) were plated in 24-well or 10-cm cell culture plate the day before transfection. For each well of 24-well plate transfection, 500 ng of dCas9-PYL-HA, 420 ng of FLAG-ABI-P300, and a total amount of 200-ng mix of gRNAs, with a 50-ng per each gRNA, were mixed with 50×(v/w) Opti-MEM (Gibco, Thermo Fisher Scientific, Inc., Waltham, Mass.), then incubate with the same volume of 3 μg PEI-Opti-MEM solution for 20 minutes at room temperature. Then, 100 μL of PEI-combined plasmids were added to every single well of 24-well plate and cultured for 24 hours before experiments were performed. For a 10 cm plate, 1 mL of PEI-combined plasmids were needed. After six hours transfection, cells were washed and incubated for another 1-72 hours before experiments were performed. […]

[2] = test system: MYOD1 mRNA in HEK293T cells; assay: qPCR of MYOD1 mRNA levels; assay type: cell-based, human; conditions: MYOD1 sgRNAs; ABA vs DMSO
Protocol: as §1
Human embryonic kidney cell HEK293T (American Type Culture Collection, Manassas, Va.) was cultured in Dulbecco's modified Eagle's medium (DMEM) (Gibco) with 10% FBS (Atlanta Biologicals), 1× GlutaMax (Gibco, Thermo Fisher Scientific, Inc., Waltham, Mass.), and 1× penicillin/streptomycin (Pen/Strep; Gibco, Thermo Fisher Scientific, Inc., Waltham, Mass.). Cells (100,000/ml) were plated in 24-well or 10-cm cell culture plate the day before transfection. […]
Total RNA was extracted using the EZNA Total RNA Kit I (Omega Bio-tek, Inc., Norcross, Ga.). qPCR reactions were performed on cDNA prepared from 1,000 ng of total cellular RNA using the High-Capacity cDNA Reverse Transcription Kit (Applied Biosystems Co., Thermo Fisher Scientific, Inc., Foster City, Calif.). […] Data were analyzed using the SDS software, version 2.4 (Applied Biosystems Co., Thermo Fisher Scientific, Inc., Foster City, Calif.), by the ΔΔCt method: the Ct values of target gene were normalized to Ct values of GAPDH, the folds of target gene expression changes were normalized to experimental controls. Analyzed data are reported as the mean±s.e.m. for biological replicates. […]

## CC1=CC(=O)CC(C)(C)[C@@]1(O)/C=C/C(C)=C\C(=O)O [ABA, abscisic acid]
[1]
  enrichment of FLAG-ABI-P300 at the HBA locus: causes the enrichment
  enrichment of H3K27Ac at the HBA locus: causes the enrichment
[2]
  level of MYOD1 mRNA: increases correspondingly
